Patent US10835468B2, “Particular pyridinedicarboxylic acid derivative/antioxidant combination” (L'OREAL, priority 2014, dated 2020)
Values joined by “and” are separate entries in the source; they are usually repeats but may differ in a detail not shown here. Equal values may be shown once.

Columns and labels:
Assay type in all cases: cell-based
Details in all cases: 72 hours under normoxia
[1] = test system: EGLN3; experiment: Expression of hypoxia-sensitive gene EGLN3 in primary human keratinocytes in culture (RT-qPCR)
Experimental: (§1) The following protocol was followed: the tests were performed on human keratinocytes in culture, seeded on Greiner brand 48-well plates, coated with bovine collagen I. The plates were prepared according to the following procedure: the solution of bovine collagen I at 0.1 mg/ml was prepared by dilution in phosphate-buffered saline (PBS) of the bovine collagen I solution sold by the company Life Technologies. Each well was immersed with 1 ml of this dilution, which was left at the bottom of the wells for 1 hour at 37° C. At the end of the incubation, the collagen solution was removed and the wells were rinsed twice with 1 ml of PBS. The plates were then stored at 4° C. until the time of use. […] Following this culturing and treatment, the cell lawns were washed with phosphate-buffered saline (or PBS) and then lysed using a lysis buffer proposed in the kit from the supplier Qiagen. The RNAs were then extracted using the RNeasy isolation kit and the Qiacube robotic workstation, both sold by the company Qiagen, according to the manufacturer's instructions. The quantity and quality of RNAs were controlled using the LabChip® GX bioanalyser from Perkin-Elmer before performing reverse transcription (RT) using the Qiagen kit and according to the supplier's recommendations (QuantiTect reverse transcription kit). The cDNA obtained following the RT was then amplified by real-time quantitative PCR using a specific kit sold under the commercial brand LightCycler® 480 SYBR Green Master Mix by the company Roche (Cat. No. 14123920) and an LC480 thermocycler (Roche). The PCRs were performed in triplicate (n=3). The information relating to the primers used is presented below. […] EGNL3/[…] Quantitect Assay Primer; RPL13A/QT00089915/Hs_RPL13A-1-SG Quantitect Assay Primer, and the fluorescent probe of brand name SYBR Green sold by the company specified previously. The PCR was performed in three phases: • denaturing phase for 10 minutes at 95° C., • amplification phase which consists of 45 cycles comprising: • a step of denaturing for 30 seconds at 95° C., • a step of hybridization for 30 seconds at 60° C., and • a step of elongation at 72° C. for 30 seconds, • melting phase for ensuring the quality of the hybridizations. The incorporation of SYBR Green into the amplified DNA was measured continuously during the amplification cycles. These measurements make it possible to obtain curves of fluorescence intensity as a function of the PCR cycles and thus to evaluate the relative expression of each marker from the cycle thresholds (Ct), corresponding to the number of cycles required to appropriately detect a fluorescence level. For each marker and for each condition, the relative expression (RE) value was normalized relative to the expression of the reference gene RPL13. The expression of each gene is normalized by that of the “stable referent gene” (or “housekeeping gene” RPL13A, ribosomal gene). The results (“fold change” (Fc)) are expressed relative to the control. The genes used are hypoxia-sensitive (HIF-1 alpha signalling pathway) and are collated in Table 1 below. Three hypoxia-sensitive genes (BNIP3, EGLN3 and CA9) were used in the following examples. Three tests were performed according to the protocol described above for each gene and for each compound or combination.

[2] = test system: BNIP3; experiment: Expression of hypoxia-sensitive gene BNIP3 in primary human keratinocytes in culture (RT-qPCR)
Experimental: as §1

[3] = test system: CA9; experiment: Expression of hypoxia-sensitive gene CA9 in primary human keratinocytes in culture (RT-qPCR)
Experimental: as §1

SMILES | EGLN3 expression, fold change relative to the control, mean ± standard deviation ([1]; compound 300 μM) | EGLN3 expression, fold change relative to the control, single tests ([1]; compound 300 μM) | BNIP3 expression, fold change relative to the control, mean ± standard deviation ([2]; compound 300 μM) | BNIP3 expression, fold change relative to the control, single tests ([2]; compound 300 μM) | CA9 expression, fold change relative to the control, mean ± standard deviation ([3]; compound 300 μM) | CA9 expression, fold change relative to the control, single tests ([3]; compound 300 μM) | EGLN3 expression, fold change relative to the control, mean ± standard deviation ([1]; compound 10 μM) | EGLN3 expression, fold change relative to the control, mean ± standard deviation ([1]; compound 100 μM) | EGLN3 expression, fold change relative to the control, single tests ([1]; compound 100 μM) | BNIP3 expression, fold change relative to the control, mean ± standard deviation ([2]; compound 10 μM) | BNIP3 expression, fold change relative to the control, single tests ([2]; compound 10 μM) | BNIP3 expression, fold change relative to the control, mean ± standard deviation ([2]; compound 100 μM) | BNIP3 expression, fold change relative to the control, single tests ([2]; compound 100 μM) | CA9 expression, fold change relative to the control, mean ± standard deviation ([3]; compound 10 μM) | CA9 expression, fold change relative to the control, mean ± standard deviation ([3]; compound 100 μM) | EGLN3 expression, fold change relative to the control, mean ± standard deviation ([1]; compound 30 μM) | BNIP3 expression, fold change relative to the control, mean ± standard deviation ([2]; compound 30 μM) | BNIP3 expression, fold change relative to the control, single tests ([2]; compound 30 μM) | CA9 expression, fold change relative to the control, mean ± standard deviation ([3]; compound 30 μM) | also measured
CCOC(=O)c1ccnc(C(=O)OCC)c1 [Stemoxydine, diethyl 2,4-pyridinedicarboxylate] | (2.60 ± 0.83) | 2.15 and 2.09 and 3.56 | (1.76 ± 0.32) | 1.51 and 1.65 and 2.13 | (4.53 ± 1.15) | 3.87 and 3.86 and 5.86 | – | – | – | – | – | – | – | – | – | – | – | – | – | –
O=C1O[C@H]([C@@H](O)CO)C(O)=C1O [Vitamin C, reference compound] | – | – | – | – | – | – | (1.07 ± 0.29) | (1.24 ± 0.24) | 1.05 and 1.51 and 1.16 | (1.01 ± 0.12) | 1.02 and 1.13 and 0.89 | (1.12 ± 0.18) | 0.98 and 1.32 and 1.07 | (1.02 ± 0.52) | (1.22 ± 0.42) | – | – | – | – | EGLN3 expression, fold change relative to the control, single tests ([1]; compound 10 μM): 0.92 and 1.41 and 0.89
CCCCCCCCCCCCCCCC(=O)OC[C@H](O)[C@H]1OC(=O)C(O)=C1O [Ascorbyl palmitate, ascorbyl palmitate] | – | – | – | – | – | – | (1.35 ± 0.46) | – | – | (1.10 ± 0.22) | 1.01 and 1.35 and 0.95 | – | – | (1.63 ± 0.38) | – | (1.16 ± 0.81) | (1.15 ± 0.41) | 1.04 and 1.6 and 0.81 | (0.99 ± 0.80) | CA9 expression, fold change relative to the control, single tests ([3]; compound 10 μM): 1.65 and 2.00 and 1.25
CC1=NCC[C@@H](C(=O)O)N1 [Ectoin, ectoin] | (2.62 ± 0.48) | 2.07 and 2.82 and 2.97 | (1.62 ± 0.2) | 1.40 and 1.79 and 1.66 | (2.57 ± 0.35) | 2.23 and 2.54 and 2.93 | – | (2.90 ± 0.50) | 2.48 and 2.76 and 3.46 | – | – | (1.62 ± 0.27) | 1.31 and 1.77 | – | (3.01 ± 0.64) | – | – | – | – | CA9 expression, fold change relative to the control, single tests ([3]; compound 100 μM): 2.73 and 2.55 and 3.74
O=C(O)[C@H]1O[C@@H](Oc2cc3oc(-c4ccccc4)cc(=O)c3c(O)c2O)[C@H](O)[C@@H](O)[C@@H]1O [Baicalin, baicalin] | – | – | – | – | – | – | – | – | – | – | – | – | – | – | – | (2.07 ± 0.39) | (1.23 ± 0.15) | 1.14 and 1.41 and 1.15 | (0.91 ± 0.27) | EGLN3 expression, fold change relative to the control, mean ± standard deviation ([1]; compound 3 μM): (1.19 ± 0.17); EGLN3 expression, fold change relative to the control, single tests ([1]; compound 3 μM): 1.00 and 1.33 and 1.25; EGLN3 expression, fold change relative to the control, single tests ([1]; compound 30 μM): 1.70 and 2.47 and 2.03; BNIP3 expression, fold change relative to the control, mean ± standard deviation ([2]; compound 3 μM): (1.11 ± 0.15); BNIP3 expression, fold change relative to the control, single tests ([2]; compound 3 μM): 0.99 and 1.27 and 1.06; CA9 expression, fold change relative to the control, mean ± standard deviation ([3]; compound 3 μM): (1.06 ± 0.28); CA9 expression, fold change relative to the control, single tests ([3]; compound 3 μM): 1.27 and 1.18 and 0.74; CA9 expression, fold change relative to the control, single tests ([3]; compound 30 μM): 1.06 and 1.07 and 0.6
Oc1ccc(C=Cc2cc(O)cc(O)c2)cc1 [Resveratrol, resveratrol] | – | – | – | – | – | – | – | – | – | – | – | – | – | – | – | – | – | – | – | EGLN3 expression, fold change relative to the control, mean ± standard deviation ([1]; compound 0.3 μM): (1.92 ± 0.55); EGLN3 expression, fold change relative to the control, single tests ([1]; compound 0.3 μM): 1.31 and 2.36 and 2.10; EGLN3 expression, fold change relative to the control, mean ± standard deviation ([1]; compound 1 μM): (3.65 ± 1.76); BNIP3 expression, fold change relative to the control, mean ± standard deviation ([2]; compound 0.3 μM): (1.26 ± 0.24); BNIP3 expression, fold change relative to the control, single tests ([2]; compound 0.3 μM): 1.05 and 1.53 and 1.21; BNIP3 expression, fold change relative to the control, mean ± standard deviation ([2]; compound 1 μM): (2.01 ± 0.79); CA9 expression, fold change relative to the control, mean ± standard deviation ([3]; compound 0.3 μM): (1.63 ± 0.28); CA9 expression, fold change relative to the control, single tests ([3]; compound 0.3 μM): 1.82 and 1.75 and 1.31; CA9 expression, fold change relative to the control, mean ± standard deviation ([3]; compound 1 μM): (2.02 ± 0.33); CA9 expression, fold change relative to the control, single tests ([3]; compound 1 μM): 2.34 and 1.97 and 1.75
